Measurements reported in PMC12040169 (PLOS Biology, 2025).

Experiment: in vitro
Conditions: human, hela cells, % viability

Row | SMILES | viability at 28.5 h, 10 µM [%]
1 | O=C(CN1C2CCC1CC(O)(c1ccco1)C2)Nc1ccc(F)cc1 (stereo not drawn) [CBK284062] | 87.6
2 | Cc1cc2c(cc3c(=O)n(CC(=O)N4CCCCC4)nc(C)n32)s1 [CBK284063] | 95.3
3 | CCN(CC)C(=O)Cn1nc(C)n2c(cc3sc(C)cc32)c1=O [CBK284064] | 96.1
4 | CCOC(=O)C(C)n1nc(C)n2c(cc3sc(C)cc32)c1=O (stereo not drawn) [CBK284066] | 76.8
5 | Cc1cc2c(cc3c(=O)n(CC(=O)NC4CC4)nc(C)n32)s1 [CBK284067] | 74.3
6 | Cc1cc2c(cc3c(=O)n(CC(=O)OC(C)C)nc(C)n32)s1 [CBK284071] | 98.6
7 | CCOC(=O)Cn1nc(CC)n2c(cc3sccc32)c1=O [CBK284073] | 80.3
8 | CCc1nn(Cc2ccccn2)c(=O)c2cc3sccc3n12 [CBK284074] | 46.8
9 | CCc1nn(CCN2CCCC2)c(=O)c2cc3sccc3n12 [CBK284075] | 83.5
10 | CCc1nn(CC(=O)OC(C)C)c(=O)c2cc3sccc3n12 [CBK284076] | 75.3
11 | Cc1nn(CC(=O)N2CCCCC2)c(=O)c2cc3ccsc3n12 [CBK284078] | 91
12 | Cc1nn(CC(=O)NC(C)(C)C)c(=O)c2cc3ccsc3n12 [CBK284082] | 83.2
13 | Cc1nn(CC(=O)N2CCC(C)CC2)c(=O)c2cc3sccc3n12 [CBK284083] | 80
14 | Cc1nn(CC(=O)N2CCCCCC2)c(=O)c2cc3sccc3n12 [CBK284084] | 80.4
15 | Cn1ccnc1C1(O)CC2CCC(C1)N2C(=O)c1ccc(F)cc1 (stereo not drawn) [CBK284086] | 98.4
16 | Cn1ccnc1C1(O)CC2CCC(C1)N2C(=O)c1ccc(Cl)cc1 (stereo not drawn) [CBK284087] | 94.2
17 | Cn1ccnc1C1(O)CC2CCC(C1)N2C(=O)c1cccs1 (stereo not drawn) [CBK284088] | 94.2
18 | CC1CCCN(C(=O)CN2C3CCC2CC(O)(c2ccco2)C3)C1 (stereo not drawn) [CBK284095] | 98.8
19 | CCOC(=O)Cn1nc(C)n2c(cc3sc(C)cc32)c1=O [CBK284096] | 82.3
20 | CCc1nn(CC(=O)N(C)C)c(=O)c2cc3sc(C)cc3n12 [CBK284102] | 110
21 | Cc1nn(CC(=O)NC2CCC2)c(=O)c2cc3ccsc3n12 [CBK284103] | 103
22 | COc1ccccc1CC(=O)N1C2CCC1CC(O)(c1ccco1)C2 (stereo not drawn) [CBK284106] | 88.8

Row | SMILES | viability at 28.5 h, 10 µM [%]
23 | CO[C@H]1CC[C@H](C(=O)N2C3CCC2CC(O)(c2ccco2)C3)CC1 (stereo partly drawn) [CBK284107] | 96.7
24 | CN(C(=O)CN1C2CCC1CC(O)(c1ccco1)C2)C1CCCCC1 (stereo not drawn) [CBK284108] | 102
25 | Cc1nn(CC(=O)NC2CCC2)c(=O)c2cc3sccc3n12 [CBK284110] | 108
26 | Cc1nn(CC(=O)C(C)(C)C)c(=O)c2cc3sccc3n12 [CBK284111] | 87.2
27 | O=C(C1CC1)N1CCC(Cn2nc(-c3ccccc3)ccc2=O)CC1 [CBK284115] | 89.7
28 | CN(C)C(=O)CN1N=C(C(C)(C)C)Cn2c(cc3sccc32)C1=O [CBK284116] | 89.5
29 | CN(C)c1ccc(C(=O)N2C3CCC2CC(O)(c2ccco2)C3)cc1 (stereo not drawn) [CBK284117] | 93.3
30 | Cc1cc2c(cc3c(=O)n(CC(=O)NC4CCC4)nc(C)n32)s1 [CBK284118] | 107
31 | CCc1nn(CC(=O)N2CCCCC2)c(=O)c2cc3ccsc3n12 [CBK284119] | 85.7
32 | CCc1nn(CC(=O)N(CC)CC)c(=O)c2cc3sc(C)cc3n12 [CBK284121] | 86.2
33 | CCOC(=O)C(C)n1nc(CC)n2c(cc3ccsc32)c1=O (stereo not drawn) [CBK284127] | 103
34 | CCc1nn(CC(=O)NC2CC2)c(=O)c2cc3ccsc3n12 [CBK284128] | 88.6
35 | CCc1nn(CC(=O)NCC2CC2)c(=O)c2cc3ccsc3n12 [CBK284129] | 87.8
36 | CCc1nn(CC(=O)NC(C)C)c(=O)c2cc3ccsc3n12 [CBK284131] | 82.6
37 | CCc1nn(CC(=O)NC2CCCC2)c(=O)c2cc3ccsc3n12 [CBK284134] | 98.4
38 | COc1ccc(CC(=O)N2C3CCC2CC(O)(c2ccco2)C3)cc1 (stereo not drawn) [CBK284137] | 92.5
39 | O=C(Cc1cccc(F)c1)N1C2CCC1CC(O)(c1ccco1)C2 (stereo not drawn) [CBK284138] | 95.3
40 | CCCc1nn(CC(=O)NC2CC2)c(=O)c2cc3ccsc3n12 [CBK284146] | 85.3
41 | CCCc1nn(CC(=O)NC(C)C)c(=O)c2cc3ccsc3n12 [CBK284147] | 87.5
42 | CCn1c2cc(C)sc2c2cnn(CCN3CCCC3)c(=O)c21 [CBK284151] | 99.7
43 | Cc1cc2c(s1)c1cnn(CC(=O)N3CCCC3)c(=O)c1n2C [CBK284153] | 85.6
44 | CCOC(=O)C(C)n1ncc2c3sc(C)cc3n(C)c2c1=O (stereo not drawn) [CBK284157] | 85.9

Row | SMILES | viability at 28.5 h, 10 µM [%]
45 | Cc1cc2c(s1)c1cnn(CC(=O)NC(C)(C)C)c(=O)c1n2C [CBK284158] | 86.6
46 | O=C(c1nccs1)C1CCN(C(=O)Cc2ccccc2F)CC1 [CBK284161] | 87.3
47 | CC(C(=O)N1CCC(C(=O)c2nccs2)CC1)c1ccccc1 (stereo not drawn) [CBK284163] | 80.8
48 | C=CCn1c2cc(C)sc2c2cnn(CC(=O)N(C)C)c(=O)c21 [CBK284164] | 83.9
49 | C=CCn1c2cc(C)sc2c2cnn(CC(=O)OCC)c(=O)c21 [CBK284165] | 82.9
50 | CCn1c2cc(C)sc2c2cnn(CC(=O)N3CCCC3)c(=O)c21 [CBK284168] | 99.8
51 | CCn1c2cc(C)sc2c2cnn(CC(=O)NC3CC3)c(=O)c21 [CBK284170] | 89.3
52 | CCCNC(=O)Cn1ncc2c3sc(C)cc3n(CC)c2c1=O [CBK284171] | 85.8
53 | O=C(c1nccs1)C1CCN(C(=O)C2CCCCC2)CC1 [CBK284175] | 107
54 | O=C(c1nccs1)C1CCN(C(=O)Cc2ccsc2)CC1 [CBK284176] | 95.5
55 | COC(=O)CN1N=C(C(C)(C)C)Cn2c(cc3sccc32)C1=O [CBK284177] | 83.3
56 | Cn1ccnc1C1(O)CC2CCC(C1)N2C(=O)Nc1ccccc1F (stereo not drawn) [CBK284178] | 88.2
57 | Cn1ccnc1C1(O)CC2CCC(C1)N2C(=O)c1ccco1 (stereo not drawn) [CBK284179] | 81.7
58 | Cc1cc2c(s1)c1cnn(CCN3CCCC3)c(=O)c1n2C [CBK284180] | 90
59 | CC(C)C(=O)N1CCC(n2nc(-c3cccs3)ccc2=O)CC1 [CBK284181] | 86.6
60 | CCn1c2cc(C)sc2c2cnn(CC(=O)OC)c(=O)c21 [CBK284186] | 86.3
61 | Cc1cc2c(s1)c1cnn(CC(=O)NC3CCCC3)c(=O)c1n2C [CBK284189] | 84.2
62 | CCCc1nn(CC(=O)N(C)C)c(=O)c2cc3ccsc3n12 [CBK284193] | 84.4
63 | O=C(C1CC=CCC1)N1CCCC(c2[nH]ncc2-c2ccncc2)C1 (stereo not drawn) [CBK284198] | 93.2
64 | O=C(c1nccs1)C1CCN(C(=O)Cc2ccc(F)cc2)CC1 [CBK284199] | 104
65 | O=C(c1nccs1)C1CCN(C(=O)c2cc(F)cc(F)c2)CC1 [CBK284200] | 96.9
66 | O=C(Cn1ncn2c(cc3ccsc32)c1=O)N1CCCCCC1 [CBK284202] | 81.7
